Like-named read-outs stand apart in the source and are kept apart here.
Test system: 6C3HED lymphosarcoma
Assay: animal or person
Type: in vivo, C3H mice
Conditions: for Toxic/Total (mice which died relative to total number of animals in the group): mouse, in vivo
Experimental: The compounds were tested in C3H mice bearing a 6C3HED lymphosarcoma, also known as the Gardner lymphosarcoma (GLS). The 6C3HED lymphosarcoma was obtained from the Division of Cancer Treatment, National Cancer Institute, Tumor Bank, maintained at E. G. and G. Mason Research (Worcester, Massachusetts).
First passage tumor was stored in liquid nitrogen using standard techniques. The transplanted tumor was reestablished from the Tumor Bank every six months or as needed. The tumor was maintained by serial passage twice weekly in C3H mice.
In the procedures utilized here, the tumor was removed from passage animals and minced into 1- to 3-mm cubic fragments using sterile techniques. Tumor pieces were checked for sterility using both Antibiotic Medium 1 and Brain Heart Infusion (Difco, Detroit, Michigan). The tumor pieces were implanted into the recipient C3H mice subcutaneously in an auxillary site by trochar.
Drug therapy on the appropriate schedule was initiated seven days after tumor implantation. The compound being tested was mixed with 2.5% Emulphor EL620 from GAF Corporation (1:40 dilution in 0.9% saline). The total dosage volume for each administration was 0.5 mL. All animals were weighed at the beginning and end of administration of the subject compounds. Food and water were provided ad libitum
Each control group and each dosage level of the treated groups generally consisted of 10 mice selected at random from the pool of implanted animals. The formulations were administered orally by gavage with the use of an 18-gauge needle. Compounds were dosed daily for 10 days.
The tumor was measured five days after treatment ended with two dimensional measurements (width and length) of the tumor taken using digital electronic calipers interfaced to a microcomputer. J. F. Worzalla, et al.. Investicational New Drugs. 8:241-251 (1990). Tumor weights were calculated from these measurements using the following formula:
Tumor weight (mg)=[tumor length (mm)×[tumor width (mm)]2].div.2
At least one control group of an equal number of mice was treated with the same volume of 2.5% Emulphor only. The percent inhibition was determined by subtracting the ratio of the mean tumor size of the test group relative to the control group from one and multiplying the result by 100.
The results of several experiments in mice bearing the 6C3HED lymphosarcoma when the instant compounds were administered orally are provided in the following table. In this table, column 1 gives the example number of the compound of Formula I administered; column 2 gives the dosage level of the compound in milligrams per kilogram of body weight; column 3 describes the percent inhibition of tumor growth; and column 4 tallies the number of mice which died during the course of the experiment relative to the total number of animals in the group.

[1] = Mus musculus, 6C3HED, 120 h, oral gavage, daily for 10 days, tumor measured five days after treatment ended, read-out: Percent Inhibition of tumor growth
[2] = Mus musculus, 6C3HED, 240 h, second listing (groups of 8), oral gavage, daily for 10 days, read-out: Percent Inhibition of tumor growth

Compound | inhibition in vivo at 150 mg/kg [1] [%] | inhibition in vivo at 300 mg/kg [1] [%] | Toxic/Total (mice which died relative to total number of animals in the group) | other results
O=C(Nc1ccc(Cl)cc1)NS(=O)(=O)c1cc2ccccc2s1 [Example 11, N-[[(4-chlorophenyl)amino]carbonyl]benzo[B]thiophene-2-sulfonamide] | 47 | 66 | – | –
O=C(Nc1ccc(Cl)c(Cl)c1)NS(=O)(=O)c1cc2ccccc2o1 [Example 3, N-[[(3,4 dichlorophenyl)amino]carbonyl]-2-benzofuransulfonamide] | 28 | 28 | – | –
O=C(Nc1ccc(Br)cc1)NS(=O)(=O)c1cc2ccccc2o1 [Example 4, N-[[(4-bromophenyl)amino]carbonyl]-2-benzofuransulfonamide] | 48 | – | 1/10 | –
O=C(Nc1ccc(Cl)cc1)NS(=O)(=O)c1ccc2cc[nH]c2c1 [Example 10, N-[[(4-chlorophenyl)amino]carbonyl]-lH-indole-6-sulfonamide] | 37 | 80 | 0/10 | –
O=C(Nc1ccc(Cl)cc1)NS(=O)(=O)c1cc2ccccc2[nH]1 [Example 9, N-[[(4-chlorophenyl)amino]carbonyl]-lH-indole-2-sulfonamide] | 26 | 57 | – | –
O=C(Nc1ccc(Cl)cc1)NS(=O)(=O)c1cc2ccccc2o1 [Example 1, N-[[(4-chlorophenyl)amino]carbonyl]-2-benzofuransulfonamide] | 84 | – | 4/10 | –
Cc1ccc(NC(=O)NS(=O)(=O)c2cc3ccccc3o2)cc1 [Example 2, N-[[(4-methylphenyl)amino]carbonyl]-2-benzofuransulfonamide] | 11 | 37 | 0/10 | –
O=C(Nc1ccc(Cl)cc1)NS(=O)(=O)c1csc2ccccc12 [Example 12, N-[[(4-chlorophenyl)amino]carbonyl]benzo[B]thiophene-3-sulfonamide] | 43 | 69 | 0/10 | –
O=C(Nc1ccc(Cl)cc1)NS(=O)(=O)c1cccc2occc12 [Example 5, N-[[(4-chlorophenyl)amino]carbonyl]-4-benzofuransulfonamide] | 84 | 100 | – | –
O=C(Nc1ccc(Cl)cc1)NS(=O)(=O)c1ccc2occc2c1 [Example 6, N-[[(4-chlorophenyl)amino]carbonyl]-5-benzofuransulfonamide hemihydrate] | 100 | – | – | inhibition in vivo at 10 mg/kg (Mus musculus, 6C3HED, 120 h, 10 mg/kg, oral gavage, daily for 10 days, tumor measured five days after treatment ended, read-out: Percent Inhibition of tumor growth): 0%; inhibition in vivo at 20 mg/kg [1]: 7%; inhibition in vivo at 40 mg/kg [1]: 53%; inhibition in vivo at 80 mg/kg [1]: 96%
O=C(Nc1ccc(Cl)cc1)NS(=O)(=O)c1ccc2ccoc2c1 [Example 8, N-[[(4-chlorophenyl)amino]carbonyl]-6-benzofuransulfonamide] | – | – | – | inhibition in vivo at 20 mg/kg [1]: 45%; inhibition in vivo at 40 mg/kg [1]: 45%; inhibition in vivo at 80 mg/kg [1]: 93%; inhibition in vivo at 160 mg/kg (Mus musculus, 6C3HED, 120 h, 160 mg/kg, oral gavage, daily for 10 days, tumor measured five days after treatment ended, read-out: Percent Inhibition of tumor growth): 100%; inhibition in vivo at 40 mg/kg [2]: 92%; inhibition in vivo at 80 mg/kg [2]: 98%
Cc1ccc(NC(=O)NS(=O)(=O)c2ccc3occc3c2)cc1 [Example 7, N-[[(4-methylphenyl)amino]carbonyl]-5-benzofuransulfonamide] | 84 | 100 | – | –
O=C(Nc1ccc(Cl)cc1)NS(=O)(=O)c1ccc2sccc2c1 [Example 13, N-[[(4-chlorophenyl)amino]carbonyl]benzo[B]thiophene-5-sulfonamide] | – | – | 0/8 | inhibition in vivo at 40 mg/kg [1]: 8%; inhibition in vivo at 80 mg/kg [1]: 44%

Reference: patent US5169860A, “Antitumor compositions and methods of treatment” (Eli Lilly and Company, priority 1992, dated 1992)
